Ki data for one compound are collected here from BindingDB's records for PubMed 8968358 (University of California, 1996).

Each structure is given as a SMILES string.

For the assay, the target named is Muscarinic acetylcholine receptor M3 (Rattus norvegicus, UniProt P08483).
Muscarinic acetylcholine receptor M3, sequence (P08483 whole entry): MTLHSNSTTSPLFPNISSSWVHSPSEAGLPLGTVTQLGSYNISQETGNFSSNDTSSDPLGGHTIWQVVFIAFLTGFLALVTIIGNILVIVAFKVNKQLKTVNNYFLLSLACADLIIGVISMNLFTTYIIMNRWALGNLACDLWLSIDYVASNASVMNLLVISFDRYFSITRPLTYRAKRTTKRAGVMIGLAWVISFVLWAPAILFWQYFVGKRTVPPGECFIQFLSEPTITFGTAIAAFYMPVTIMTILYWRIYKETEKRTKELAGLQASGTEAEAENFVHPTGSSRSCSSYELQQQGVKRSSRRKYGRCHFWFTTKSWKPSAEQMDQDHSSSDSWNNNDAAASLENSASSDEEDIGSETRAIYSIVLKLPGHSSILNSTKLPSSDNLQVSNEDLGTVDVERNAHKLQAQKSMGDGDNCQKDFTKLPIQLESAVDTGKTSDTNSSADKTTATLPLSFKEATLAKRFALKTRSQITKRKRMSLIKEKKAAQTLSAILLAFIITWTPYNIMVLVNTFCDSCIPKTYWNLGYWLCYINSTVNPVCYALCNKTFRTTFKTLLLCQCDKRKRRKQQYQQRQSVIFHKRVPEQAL

The compound `C[N+](C)(C)CC#CCN1CCCC1=O` showed a Ki of 8.7 µM.

A word on the Ki: it is the equilibrium dissociation constant of an inhibitor or competing ligand from its target. A lower Ki goes with tighter binding.
